Source: patent US6403774B1, “Azoamidine compound” (Wako Pure Chemical Industries, Ltd., priority 2000, dated 2002)

Assay: Thermal decomposition of the azo compound (10 hour half-life temperature, decomposition rate constant)
Format: physicochemical

Substance: 2,2′-azobis[2-methyl-1-(1-pyrrolidinyl)iminopropane] hydrochloride [Example 1]
- 10 hour half-life temperature: 66.5 °C
- Decomposition rate constant k60° C. (60° C.): 7.94e-06 s⁻¹
- Decomposition rate constant k70° C. (70° C.): 3.03e-05 s⁻¹
- Ea (decomposition kinetics): 30.39 kcal/mol
- lnA (decomposition kinetics): 34.19
